The target of test [1] is T1, Alpha 1,4 galactosyltransferase (Neisseria meningitidis) (UniProt Q8KHJ3).
T1 sequence (whole entry): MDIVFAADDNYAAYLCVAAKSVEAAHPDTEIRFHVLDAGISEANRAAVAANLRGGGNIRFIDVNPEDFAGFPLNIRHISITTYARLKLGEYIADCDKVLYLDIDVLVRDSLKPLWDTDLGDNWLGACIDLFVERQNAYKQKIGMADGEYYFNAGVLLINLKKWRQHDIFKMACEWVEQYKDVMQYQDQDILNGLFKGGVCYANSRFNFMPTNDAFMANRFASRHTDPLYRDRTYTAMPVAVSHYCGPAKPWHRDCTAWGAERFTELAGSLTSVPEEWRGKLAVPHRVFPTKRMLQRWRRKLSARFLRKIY
The test can be described thus: Inhibition of Neisseria meningitidis alpha-1,4-galactosyltransferase LgtC at 20% donor UDP-Gal turn over rates by inorganic phosphate release from UDP and malachite green dye based inorganic phosphate detection based assay.

The target in test [2] is T1, Alpha 1,4 galactosyltransferase (Neisseria meningitidis). The test can be described thus: Inhibition of Neisseria meningitidis alpha-1,4-galactosyltransferase LgtC at 50% donor UDP-Gal turn over rates by inorganic phosphate release from UDP and malachite green dye based inorganic phosphate detection based assay.
Test [3] shares this target. The test can be described thus: Inhibition of Neisseria meningitidis alpha-1,4-galactosyltransferase LgtC at 90% donor UDP-Gal turn over rates by inorganic phosphate release from UDP and malachite green dye based inorganic phosphate detection based assay.
Test [4] has as its target T2, Beta-1,4-galactosyltransferase 1 (Bos taurus) (UniProt P08037).
T2 sequence (whole entry): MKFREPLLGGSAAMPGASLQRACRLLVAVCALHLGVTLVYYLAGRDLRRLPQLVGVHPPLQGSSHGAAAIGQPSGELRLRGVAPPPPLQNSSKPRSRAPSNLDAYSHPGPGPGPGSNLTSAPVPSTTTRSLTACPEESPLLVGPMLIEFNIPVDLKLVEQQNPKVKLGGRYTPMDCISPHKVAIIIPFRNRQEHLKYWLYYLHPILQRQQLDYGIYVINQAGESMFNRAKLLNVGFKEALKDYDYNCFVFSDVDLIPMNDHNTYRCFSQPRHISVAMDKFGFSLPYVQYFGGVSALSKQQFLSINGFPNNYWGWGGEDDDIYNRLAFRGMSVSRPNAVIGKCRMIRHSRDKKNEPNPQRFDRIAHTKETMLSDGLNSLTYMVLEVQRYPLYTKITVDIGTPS
Briefly: Inhibition of bovine beta-1,4-GalT […] at 10% to 50 donor UDP-Gal turn over rates by inorganic phosphate release from UDP and malachite green dye based inorganic phosphate detection based assay.

The target in test [5] is Intestinal-type alkaline phosphatase (Bos taurus) (UniProt P19111). Briefly: Activity of calf intestinal phosphatase assessed as compound turn over rates by inorganic phosphate release and malachite green dye based inorganic phosphate detection based assay.
Intestinal-type alkaline phosphatase (Bos taurus), sequence (P19111 20-506 limits assumed): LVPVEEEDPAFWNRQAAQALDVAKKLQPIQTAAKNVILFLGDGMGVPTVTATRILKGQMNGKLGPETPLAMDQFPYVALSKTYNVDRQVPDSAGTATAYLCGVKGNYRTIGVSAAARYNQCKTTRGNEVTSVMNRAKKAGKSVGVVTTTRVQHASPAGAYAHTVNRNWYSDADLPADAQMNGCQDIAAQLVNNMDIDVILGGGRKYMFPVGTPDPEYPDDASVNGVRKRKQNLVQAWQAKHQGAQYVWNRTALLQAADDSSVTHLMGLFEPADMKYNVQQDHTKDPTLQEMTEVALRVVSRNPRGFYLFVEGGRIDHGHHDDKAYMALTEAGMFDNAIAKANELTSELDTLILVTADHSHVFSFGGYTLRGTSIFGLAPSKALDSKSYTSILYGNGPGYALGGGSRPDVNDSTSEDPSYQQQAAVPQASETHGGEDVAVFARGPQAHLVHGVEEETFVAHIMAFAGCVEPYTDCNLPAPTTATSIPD
The target in test [6] is T3, Alpha 1,4 galactosyltransferase (Neisseria meningitidis, UniProt Q8KHJ3).
T3 sequence (Q8KHJ3 whole entry): T1 sequence (whole entry)
The test can be described thus: Inhibition of Neisseria meningitidis alpha-1,4-galactosyltransferase LgtC by inorganic phosphate release from UDP and malachite green dye based inorganic phosphate detection based assay.

Test [7] has as its target T1, Alpha 1,4 galactosyltransferase (Neisseria meningitidis). The test can be described thus: Activity of Neisseria meningitidis alpha-1,4-galactosyltransferase LgtC assessed as compound turn over rates at 50 to 100 uM incubated for 20 mins by inorganic phosphate release and malachite green dye based inorganic phosphate detection based assay.
Test [8] concerns the target T4, Beta-1,4-galactosyltransferase 1 (Bos taurus, UniProt P08037).
T4 sequence (P08037 whole entry): T2 sequence (whole entry)
The test can be described thus: Inhibition of bovine beta-1,4-GalT […] at 29% donor UDP-Gal turn over rates by inorganic phosphate release from UDP and malachite green dye based inorganic phosphate detection based assay.

A word on the IC50: it is the concentration that gives 50% inhibition. Low readings indicate inhibition by little substance, high ones a need for much substance.

Calls of active or inactive are those of the source. No cut-off for these calls is given here.

`O=c1ccn([C@@H]2O[C@H](CO)[C@@H](O)[C@H]2O)c(=O)[nH]1`: the inhibition result in test [1], in test [2], in test [3] and in test [4] was “inactive” in each case.
`O=c1ccn([C@@H]2O[C@H](COP(=O)(O)OP(=O)(O)O)[C@@H](O)[C@H]2O)c(=O)[nH]1`: in test [5], the outcome was Active.
For the compound `O=Cc1ccc(-c2cn([C@@H]3O[C@H](COP(=O)(O)OP(=O)(O)O[C@H]4O[C@H](CO)[C@H](O)[C@H](O)[C@H]4O)[C@@H](O)[C@H]3O)c(=O)[nH]c2=O)s1`, the 50% inhibitory concentration (IC50) is 0.9 µM in test [6] and 9 µM in test [8]. In addition, in test [7], the outcome was inactive. The result in test [5] was Active.

For the origin of these results see ChEMBL document CHEMBL3588762, “A practical glycosyltransferase assay for the identification of new inhibitor chemotypes” (Medchemcomm, 2014).
